Assays:
blood monocytes = assay: in vitro; conditions: 48 h
Protocol: Purified populations of human blood monocytes were prepared as previously described by differential density centrifugation on Ficoll and Percoll gradients (see Allavena, P., Piemonti, L., Longoni, D., Bernasconi, S., Stoppacciaro, A., Ruco, L., and Mantovani, A. IL-10 prevents the differentiation of monocytes to dendritic cells but promotes their maturation to macrophages. Eur J Immunol, 28: 359-369, 1998). […] Human thymocytes were isolated from resected thymus from pediatric patients undergoing surgery. Thymocytes were obtained by teasing and isolated on Percoll gradient.
Cells were cultured at 10^6 cells/ml in complete medium RPMI (Biochrom, Berlin, FRG)+10% FCS (Hyclone, Logan, Utah). In vitro differentiated macrophages were obtained by culture of monocytes Monocyte-Colony Stimulating Factor (M-CSF) Peprotech (20 ng/ml), for 5 days. In some experiments, macrophages were treated with LPS (100 ng/ml) Sigma Aldrich, IFN gamma (500 IU/ml) or IL-4 (20 ng/ml) (Schering Plough) for 24 h.
Cell viability was analyzed by DNA content in Flow Cytometry
Cells exposed to treatments were fixed with ethanol 70%, washed in PBS and stained with propidium iodide (PI) solution containing 10 ug/ml PI in PBS and 25 μl RNAse 10,000 units, overnight in the dark. PI incorporation was evaluated on at least 20,000 cells/sample using a FACS Calibur instrument (Becton Dickinson, Sunnyvale, Calif., USA), with a bandpass filter at 620 nm. Apoptosis was detected by staining with AnnexinV and PI. FACS analysis was performed using a bandpass filter 530 and 620 nm for green (AnnexinV) and red (PI) fluorescence respectively, in combination with a […] dichroic mirror.
Purified preparations of blood monocytes, lymphocytes and thymocytes were cultured with different concentrations of ecteinascidin 743 for 48 h. Cell viability was assessed by DNA analysis and propidium iodide (PI) staining in Flow cytometry.
A kinetics analysis of the cytotoxic effect of ecteinascidin 743 was performed in the presence of M-CSF. Cells were treated with M-CSF (20 ng/ml) and different concentrations of ecteinascidin 743. Samples were collected at the indicated times and tested for DNA analysis.
Viability was assessed by PI staining and analyzed by Flow Cytometry.

CCL2 [1] = assay: CCL2 production by LPS-stimulated monocytes (ELISA); format: cell-based, human; conditions: 24 h-incubation
Protocol: Supernatants of untreated cells or cells treated with ecteinascidin 743 or other anti-neoplastic agents were collected after 24 h culture and frozen. Monocytes, macrophages and TAM were stimulated with 100 ng/ml LPS to induce maximal cytokine production. Determination of cytokines CCL2, TNF and IL-6 was measured by specific ELISA following the manufacturer's instructions.
Monocytes and in vitro differentiated macrophages were stimulated with LPS (100 ng/ml). After 1 h LPS stimulation they were treated with ecteinascidin 743. After 16 h incubation, cell supernatants were harvested and tested in ELISA. Under these treatment conditions cell viability was usually >85% for concentrations up to 5 nM. […] Mean inhibition at 5 nM, for monocytes, was 65% (range 50-80%, n=5) and was 50% (range 25-75%, n=5) for in vitro differentiated macrophages. Results are mean+/−SE of 3-5 experiments
Similar results were obtained when monocytes were stimulated with LPS (100 ng/ ml) and treated with ET743 and the other ecteinascidin compounds, although the overall inhibition was less marked compared with the previous experiment where the tumor supernantant was used as CCL2-inducing stimulus.
CCL2 and TNF production by LPS-stimulated monocytes treated with the indicated doses of the anti-tumor agents was also tested. Cell supernatants were harvested after 24 h-incubation and tested in ELISA. […] None of these compounds interfered with the production of TNF.
A major finding of our work is the inhibitory activity of ecteinascidin 743 on the production of inflammatory cytokines. Among various inflammatory cytokines produced by monocyte/macrophages we have tested IL-6, TNF and the chemokine CCL2. CCL2 is a chemokine attracting monocytes and other leukocyte subsets, and is produced both by monocyte/macrophages and several tumour cells. It has been described that ovarian adenocarcinoma cells produce huge amounts of CCL2 and that their levels correlate with the macrophage content of tumours. CCL2 is therefore one of the most important factors regulating monocyte/macrophages recruitment at the tumour site. […] Thus, lower levels of CCL2 by TAM and tumour cells are likely to reduce the number of macrophages recruited at the tumour site. In the above described in vitro experiments ecteinascidin 743 was present throughout the 16-h culture period. We also checked whether a shorter in vitro exposure to ecteinascidin 743 was sufficient to affect cytokine production. Monocytes exposed to ecteinascidin 743 were washed after 1 hour culture and replaced in fresh medium.

CCL2 [2] = assay: CCL2 production induced by exposure of monocytes to tumor cell supernatants; format: cell-based, human
Protocol: We also tested five other ecteinascidin compounds (Table 2) for their capacity to inhibit the production of CCL2 by human monocytes in vitro. […] The extent of inhibition of ET637 Derivative A was even more pronouced compared to ET743. In Table 2 is shown that the production of CCL2, induced by exposure of monocytes to tumor cell supernatants, is inhibited up to 80% and 97% at 2.5 and 5 nM, respectively, in two different donors. In the same experiment ET743 inhibited between 30% and 70%.

N.N.[Cl][Pt][Cl] [Cisplatin, reference compound]
toxicity on monocytes (blood monocytes; very high concentrations (40 μM)): Significant toxicity | effect on CCL2 production by LPS-stimulated monocytes (CCL2 [1]; 10 μM): reduced CCL2 production

COc1cccc2c1C(=O)c1c(O)c3c(c(O)c1C2=O)C[C@@](O)(C(=O)CO)C[C@@H]3O[C@H]1C[C@H](N)[C@H](O)[C@H](C)O1 [Doxorubicin, reference compound]
effect on CCL2 production by LPS-stimulated monocytes (CCL2 [1]; indicated doses (FIG. 9B)): ineffective

COc1c(C)cc2c(c1O)C1C3[C@@H]4SCC(=O)C(=O)OC[C@@H](c5c6c(c(C)c(OC(C)=O)c54)OCO6)N3[C@@H](O)[C@H](C2)N1C (some centres unmarked) [ET594]
% inhibition of CCL2 production, Donor A (CCL2 [2]; 5 nM): 25% | % inhibition of CCL2 production, Donor A (CCL2 [2]; 10 nM): 25%

COc1cc2c(cc1O)CCN[C@]21CS[C@@H]2c3c(OC(C)=O)c(C)c4c(c3[C@H](COC1=O)N1C[C@@H]3Cc5cc(C)c(OC)c(O)c5[C@H]([C@H]21)N3C)OCO4 [ET745]
inhibition at 0.005 µM (CCL2 [2]; Homo sapiens, Monocyte, read-out: % inhibition of CCL2 production, Donor A): 23%

CC(=O)O[C@H]1C(=O)[C@@]2(C)[C@H]([C@H](OC(=O)c3ccccc3)[C@]3(O)C[C@H](OC(=O)[C@H](O)[C@@H](NC(=O)c4ccccc4)c4ccccc4)C(C)=C1C3(C)C)[C@]1(OC(C)=O)CO[C@@H]1C[C@@H]2O [Taxol, reference compound]
toxicity on monocytes (blood monocytes; 300 nM): ineffective | effect on CCL2 production by LPS-stimulated monocytes (CCL2 [1]; indicated doses (FIG. 9B)): ineffective

— patent US20080076772A1, “Anti-Inflammatory Agents” (Pharma Mar S.A. Sociedad Unipersonal, priority 2004, published 2008)
